Results reported in patent US8940350B2, “Cereal compositions comprising high-potency sweeteners” (The Coca-Cola Company, priority 2005, dated 2015).

Assay: Rate of dissolution in H2O at 25° C. of rebaudioside A polymorph and amorphous forms
Assay type: physicochemical
Settings: grade in words

Rate of dissolution in H2O at 25° C. | Substance
High | rebaudioside A [Form 4]
High | rebaudioside A [Form 3]
Very low | rebaudioside A [Form 1]
Intermediate | rebaudioside A [Form 2]
